Laboratory results reported in patent publication US7153881B2, “Compounds acting as melanocortin receptor ligands” (Acure Pharma AB, priority 2001, dated 2006).

Legend:
MC4 [1] = target: T1, MC4 (Homo sapiens, UniProt P32245); test: Stimulation of cAMP, MC4; format: cell-based; conditions: response given relative to α-MSH
Protocol: (§1) The stimulation of cAMP was carried out essentially as described by Schiöth et al, Br J Pharmacol 1998; 124; 75–82, however, the response is given relative to α-MSH.

MC1 = MC1 (Homo sapiens, UniProt Q01726); test: Stimulation of cAMP, MC1; format: cell-based; conditions: response given relative to α-MSH
Protocol: as §1

MC5-receptors = MC5-receptors (Homo sapiens, UniProt P33032); test: Affinity for the MC5-receptors, binding assay using I125-NDP-αMSH as ligand
Protocol: (§2) Test 2. Affinity for the MC3-receptors, the MC4-receptors and the MC5-receptors
(§3) The binding assays were carried out essentially as described by Szardenings et al, J Biol Chem 1997; 272; 27943–27948 and Schiöth et al, FEBS Lett 1997; 410; 223–228 using I125-NDP-αMSH as ligand.

MC3 [2] = target: T2, MC3 (Homo sapiens, UniProt P41968); test: Affinity for the MC3-receptors, binding assay using I125-NDP-αMSH as ligand
Protocol: as §2, §3

MC3 [3] = target: T2, MC3; test: Stimulation of cAMP, MC3; format: cell-based; conditions: response given relative to α-MSH
Protocol: as §1

MC4 [4] = target: T1, MC4; test: Affinity for the MC4-receptors, binding assay using I125-NDP-αMSH as ligand
Protocol: as §2, §3

Sequence of MC5-receptors (P33032 whole entry): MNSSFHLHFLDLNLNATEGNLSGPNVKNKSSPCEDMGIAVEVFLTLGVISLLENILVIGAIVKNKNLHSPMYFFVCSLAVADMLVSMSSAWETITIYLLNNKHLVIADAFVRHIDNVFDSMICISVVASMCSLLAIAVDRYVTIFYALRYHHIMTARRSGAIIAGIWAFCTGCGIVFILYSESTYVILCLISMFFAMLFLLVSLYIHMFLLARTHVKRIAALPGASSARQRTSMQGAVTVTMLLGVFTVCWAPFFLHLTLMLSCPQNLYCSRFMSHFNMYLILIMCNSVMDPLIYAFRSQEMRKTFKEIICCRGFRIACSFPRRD
Sequence of MC1 (Q01726 whole entry): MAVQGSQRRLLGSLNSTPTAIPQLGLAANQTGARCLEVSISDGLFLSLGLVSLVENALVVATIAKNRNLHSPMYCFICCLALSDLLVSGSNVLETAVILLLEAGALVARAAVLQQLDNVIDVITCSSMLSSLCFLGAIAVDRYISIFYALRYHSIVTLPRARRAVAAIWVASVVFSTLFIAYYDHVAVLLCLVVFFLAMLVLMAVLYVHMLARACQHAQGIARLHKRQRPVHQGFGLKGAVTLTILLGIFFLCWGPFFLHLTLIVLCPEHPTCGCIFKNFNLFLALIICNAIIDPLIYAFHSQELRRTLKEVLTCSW
T1 sequence (P32245 whole entry): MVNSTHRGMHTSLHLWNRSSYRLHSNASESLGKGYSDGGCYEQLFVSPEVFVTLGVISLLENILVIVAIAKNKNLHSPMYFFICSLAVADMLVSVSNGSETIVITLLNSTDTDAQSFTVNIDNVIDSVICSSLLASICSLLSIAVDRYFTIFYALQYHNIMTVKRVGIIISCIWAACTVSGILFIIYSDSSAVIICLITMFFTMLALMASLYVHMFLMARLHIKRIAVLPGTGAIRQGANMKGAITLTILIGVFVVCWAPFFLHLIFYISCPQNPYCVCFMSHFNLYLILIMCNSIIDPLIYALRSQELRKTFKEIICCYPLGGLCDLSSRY
T2 sequence (P41968 whole entry): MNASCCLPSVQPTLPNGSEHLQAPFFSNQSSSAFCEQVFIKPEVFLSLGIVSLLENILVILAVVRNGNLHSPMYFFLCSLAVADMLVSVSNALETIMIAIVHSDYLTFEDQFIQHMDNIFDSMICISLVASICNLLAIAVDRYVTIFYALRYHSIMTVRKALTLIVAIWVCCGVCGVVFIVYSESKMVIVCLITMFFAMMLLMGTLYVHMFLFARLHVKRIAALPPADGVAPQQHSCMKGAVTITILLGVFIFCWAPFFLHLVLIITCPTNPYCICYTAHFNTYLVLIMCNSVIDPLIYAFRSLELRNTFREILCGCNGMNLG

| melting point | Compound | other results |
| --- | --- | --- |
| 149 to 152 °C | N=C(NN=Cc1ccccc1Br)Nc1ccccc1 [Compound 28, N-(2-Bromobenzylideneamino)-N′-phenylguanidine] | – |
| 190 to 192 °C | N=C(NCc1ccccc1)NN=Cc1cccn1-c1ccc(Cl)cc1 [Compound 29, N-[1-(4-Chlorophenyl) 1H-pyrrol-2-ylmethyleneamino]-N′-benzylguanidine] | cAMP agonist/plateau stim. α-MSH (%) MC4 (MC4 [1]): 111%; cAMP agonist/plateau stim. α-MSH (%) MC1 (MC1): 10%; Ki (MC5-receptors): 1.32 µM; cAMP agonist/plateau stim. α-MSH (%) MC3 (MC3 [3]): 3%; Ki (MC4 [4]): 0.61 µM |
| 253 to 255 °C | N=C(NN=Cc1cccc2ccccc12)NN=Cc1cccc2ccccc12 [Compound 30, N,N′-Di-(naphthalen-1-ylmethyleneamino)guanidine] | – |
| 228 to 230 °C | COc1ccc(C=NNC(=N)NN=Cc2ccc(OC)c(OC)c2Cl)c(Cl)c1OC [Compound 32, N,N′-Di-(2-Chloro-3,4-Dimethoxybenzylideneamino)guanidine] | – |
| 175 to 177 °C | N=C(NCCc1ccccc1)NN=CC=Cc1ccccc1 [Compound 33] | cAMP agonist/plateau stim. α-MSH (%) MC4 (MC4 [1]): 161%; cAMP agonist/plateau stim. α-MSH (%) MC1 (MC1): 8%; Ki (MC5-receptors): 8.23 µM; Ki (MC3 [2]): 5.36 µM; cAMP agonist/plateau stim. α-MSH (%) MC3 (MC3 [3]): 4%; Ki (MC4 [4]): 3.59 µM |
| 221 to 223 °C | N=C(NN=Cc1cccn1-c1ccc(Cl)cc1)NN=Cc1cccn1-c1ccc(Cl)cc1 [Compound 34, N,N′-Di-(1-(4-Chlorophenyl)-1H-pyrrol-2-ylmethyleneamino)guanidine] | – |
| 217 to 219 °C | CNC(=N)NN=Cc1cc([N+](=O)[O-])ccc1F [Compound 35, N-(2-Fluoro-5-nitrobenzylideneamino)-N′-methylguanidine] | – |
| 207 to 210 °C | CNC(=N)NN=Cc1ccc(OC)c(OC)c1Cl [Compound 37, N-(2-Chloro-3,4-dimethoxybenzylideneamino)-N′-methylguanidine] | – |

The remaining lines, values behind:

| Compound | melting point | other results |
| --- | --- | --- |
| N=C(NN=Cc1ccc([N+](=O)[O-])cc1[N+](=O)[O-])Nc1ccccc1 | 180 to 190 °C | – |
| COc1ccc(C=NNC(=N)NCc2ccccc2)c(Cl)c1OC [Compound 1, N-(2-chloro-3,4-dimethoxybenzylideneamino)-N′-benzylguanidine] | 215 to 217 °C | – |
| COc1ccc(C=NNC(=Nc2ccccc2)NO)c(Cl)c1OC [Compound 2, N-(2-chloro-3,4-dimethoxybenzylideneamino)-N′-hydroxy-N″-phenylguanidine] | 167 to 169 °C | – |
| COc1ccc(C=NNC(=N)NCCc2ccccc2)cc1 [Compound 10, N-(4-methoxybenzylideneamino)-N′-(2-phenylethyl)guanidine] | 126 to 128 °C | – |
| N=C(NCc1cccc2ccccc12)NN=Cc1ccncc1 [Compound 11, N-(pyrid-4-yl-methylideneamino)-N′-(naphthalen-1-yl-methyl)guanidine] | 260 to 262 °C | – |
| N=C(NCCc1ccccc1)NN=Cc1c[nH]c2ccccc12 [Compound 12, N-(1H-indol-3-ylmethylideneamino)-N′-(2-phenylethyl)guanidine] | 207 to 209 °C | – |
| N=C(N)N(Cc1cccc2ccccc12)N=Cc1c[nH]c2ccccc12 [Compound 13, N-(1H-indol-3-yl-methylideneamino)-N-(naphthalen-1-ylmethyl)guanidine] | 213 to 215 °C | – |
| N=C(NN=Cc1c[nH]c2ccccc12)NN=Cc1c[nH]c2ccccc12 [Compound 14, N,N′-bis[1H-indol-3-yl-methylideneamino]guanidine] | 296 to 298 °C | – |
| COc1ccc(C=NNC(=N)Nc2ccccc2)c(Cl)c1OC [Compound 16, N-(2-chloro-3,4-dimethoxybenzylideneamino)-N′-phenylguanidine] | 179 to 181 °C | – |
| N=C(NN=Cc1cc([N+](=O)[O-])ccc1F)Nc1ccccc1 [Compound 17, N-(2-fluoro-5-nitrobenzylideneamino)-N′-phenylguanidine] | 191 to 193 °C | – |
| N=C(NCc1ccccc1)NN=Cc1ccc(O)cc1 [Compound 18, N-(4-hydroxybenzylideneamino)-N′-benzylguanidine] | 192 to 194 °C | – |
| N=C(NCCc1ccccc1)NN=Cc1ccc([N+](=O)[O-])cc1 [Compound 20, N-(4-nitrobenzylideneamino)-N′-(2-phenylethyl)guanidine] | 241 to 243 °C | – |
| N=C(NCCc1ccccc1)NN=Cc1ccc2ccccc2c1 [Compound 21, N-(naphthalen-2-yl-methylideneamino)-N′-(2-phenylethyl)guanidine] | 244 to 246 °C | – |
| N=C(NN=Cc1ccc2ccccc2c1)Nc1ccc2ccccc2c1 [Compound 23, N-(naphthalen-2-yl-methylideneamino)-N′-naphthalen-2-ylguanidine] | 218 to 220 °C | – |
| N=C(NCc1ccccc1)NN=Cc1ccc([N+](=O)[O-])cc1 [Compound 24, N-(4-Nitrobenzylideneamino)-N′-benzylguanidine] | 239 to 241 °C | – |
| N=C(NCCc1ccccc1)NN=Cc1ccccc1Br [Compound 27, N-(2-Bromobenzylideneamino)-N′-phenethylguanidine] | 154 to 155 °C | cAMP agonist/plateau stim. α-MSH (%) MC4 (MC4 [1]): 97%; cAMP agonist/plateau stim. α-MSH (%) MC1 (MC1): 12%; Ki (MC5-receptors): 5.8 µM; Ki (MC3 [2]): 7.96 µM; cAMP agonist/plateau stim. α-MSH (%) MC3 (MC3 [3]): 9%; Ki (MC4 [4]): 1.35 µM |
